PubChem BioAssay AID1918939 (Molecular Pharmacology Branch, DTP, NCI, 2023)

Tested on: 653999-131-R-J2-PDC complex spheroid viability
Experiment: Anticancer human tumor 653999-131-R-J2-PDC patient-derived lung adenocarcinoma cell line growth inhibition
Settings: for IC50: curve of first compound; for viability, T/C: stronger effect = lower value
How it was run: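 Complex spheroids of tumor cells with HUVEC and human MSCs, exposed to iadademstat combined with other agents. Each agent tested in half-log steps from near clinical Cmax (else 10 microM top), DMSO ≤0.25%.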

[1] = second compound 0.1 µM, first compound 0.000316 µM
[2] = second compound 0.1 µM, first compound 0.001 µM
[3] = second compound 0.1 µM, first compound 0.00316 µM
[4] = second compound 0.1 µM, first compound 0.01 µM
[5] = second compound 0.1 µM, first compound 0.0316 µM
[6] = second compound 0.1 µM, first compound 0.1 µM
[7] = second compound 0.316 µM, first compound 0.000316 µM
[8] = second compound 0.316 µM, first compound 0.001 µM
[9] = second compound 0.316 µM, first compound 0.00316 µM
[10] = second compound 0.316 µM, first compound 0.01 µM
[11] = second compound 0.316 µM, first compound 0.0316 µM
[12] = second compound 0.316 µM, first compound 0.1 µM
[13] = second compound 1 µM, first compound 0.000316 µM
[14] = second compound 1 µM, first compound 0.001 µM
[15] = second compound 1 µM, first compound 0.00316 µM
[16] = second compound 1 µM, first compound 0.01 µM
[17] = second compound 1 µM, first compound 0.0316 µM
[18] = second compound 1 µM, first compound 0.1 µM
[19] = second compound 3.16 µM, first compound 0.000316 µM
[20] = second compound 3.16 µM, first compound 0.001 µM
[21] = second compound 3.16 µM, first compound 0.00316 µM
[22] = second compound 3.16 µM, first compound 0.01 µM
[23] = second compound 3.16 µM, first compound 0.0316 µM
[24] = second compound 3.16 µM, first compound 0.1 µM
[25] = second compound 10 µM, first compound 0.000316 µM
[26] = second compound 10 µM, first compound 0.001 µM
[27] = second compound 10 µM, first compound 0.00316 µM
[28] = second compound 10 µM, first compound 0.01 µM
[29] = second compound 10 µM, first compound 0.0316 µM
[30] = second compound 10 µM, first compound 0.1 µM
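Note: spheroids exposed to agents for seven days before readout.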

Structure (SMILES)	IC50 (second compound 0.1 µM) [nM]	IC50 (second compound 0.316 µM) [nM]	IC50 (second compound 1 µM) [nM]	IC50 (second compound 3.16 µM) [nM]	IC50 (second compound 10 µM) [nM]	viability, T/C [1] [%]	viability, T/C [2] [%]	viability, T/C [3] [%]	viability, T/C [4] [%]	viability, T/C [5] [%]	viability, T/C [6] [%]	viability, T/C [7] [%]	viability, T/C [8] [%]	viability, T/C [9] [%]	viability, T/C [10] [%]	viability, T/C [11] [%]	viability, T/C [12] [%]	viability, T/C [13] [%]	viability, T/C [14] [%]	viability, T/C [15] [%]	other results
CC(C)CC(NC(=O)C(Cc1ccccc1)NC(=O)c1cnccn1)B(O)O (stereo not given) + NC1CC1c1ccc(-c2cccc(O)c2)cc1	0.832	0.904	0.786	0.979	0.589	122	35.4	12.9	4.58	1.38	2.17	110	44.2	11.4	3.25	1.54	1.44	109	34	11.6	viability, T/C [16]: 3.96%; viability, T/C [17]: 0.99%; viability, T/C [18]: 4.31%; viability, T/C [19]: 103%; viability, T/C [20]: 48.9%; viability, T/C [21]: 16%; viability, T/C [22]: 3.4%; viability, T/C [23]: 1.41%; viability, T/C [24]: 2.37%; viability, T/C [25]: 74.4%; viability, T/C [26]: 29.1%; viability, T/C [27]: 9.61%; viability, T/C [28]: 3.68%; viability, T/C [29]: 1.33%; viability, T/C [30]: 2.12%
CC(C)CC(NC(=O)CNC(=O)c1cc(Cl)ccc1Cl)B1OC(=O)CC(CC(=O)O)(C(=O)O)O1 (stereo not given) + NC1CC1c1ccc(-c2cccc(O)c2)cc1	21.1	15.1	16.5	14.7	9.33	88.6	103	109	73	38.5	19.6	97.4	91.7	117	62.3	38.2	17.5	77.9	87	123	viability, T/C [16]: 68.2%; viability, T/C [17]: 33%; viability, T/C [18]: 20.4%; viability, T/C [19]: 92.8%; viability, T/C [20]: 90.8%; viability, T/C [21]: 116%; viability, T/C [22]: 61.7%; viability, T/C [23]: 38.7%; viability, T/C [24]: 14.7%; viability, T/C [25]: 80%; viability, T/C [26]: 84.6%; viability, T/C [27]: 113%; viability, T/C [28]: 47.3%; viability, T/C [29]: 23.9%; viability, T/C [30]: 9.99%
